Reference: patent US20260306525A1, “COMBINATION THERAPY GLUCOCORTICOIDS AND GINSENOSIDE” (FYTAGORAS B.V., priority 2023, published 2026)

Legend:
pck1 = experiment: qPCR pck1 expression in zebrafish larvae; type: in vivo, zebrafish (Danio rerio); conditions: for pck1 expression, short-term treatment / pck1 expression, long-term treatment: 5 dpf, beclomethasone 10 μM, Rg1 50 μM or combination; for pck1 expression, long-term treatment: 5 days
Description: (§1) […] Groups of 15 larvae were collected in TRIzol reagent (ThermoFisher) and total RNA was isolated using miRNeasy mini kit (Qiagen, Hilden, Germany). For experiments in HeLa cells, cells were seeded in 6 well plates and after treatment, the cells were removed from the wells using TRIzol reagent and mRNA was isolated using miRNeasy mini kit (Qiagen) according to the manufacturer's instructions. The RNA samples were DNAse-treated utilizing the DNA-free™ DNA Removal Kit (ThermoFisher Scientific). The cDNA synthesis was performed using the iScript cDNA synthesis kit (Bio-Rad Laboratories, Hercules, CA, USA) using 1 μg of RNA per sample. For qPCR, 10 μM of forward primer and 10 μM of reverse primer, 12.5 μl of IQ SYBR Green Supermix (Bio-Rad Laboratories), and 2 μl of cDNA were added to the qPCR reaction mixture. […] The qPCR reactions were performed on a MyiQ-single-color real-time PCR detection system (Bio-Rad Laboratories), with initial denaturation for 3 min, 95° C., and 40 cycles of 15 s at 95.5° C., 15 s at 60° C., and 30 s at 72° C. Cycle threshold values (Ct values, i.e. the cycle numbers at which a threshold value of the fluorescence intensity was reached) were determined for each sample. The gene expression level for each sample was normalized using the expression of ppial (peptidylprolyl isomerase Ab (cyclophilin A)) for zebrafish samples, and 18S rRNA for human cells. The fold change per sample (compared to the respective control group) was calculated using the […]Ct method.
(§2) […] Per sample, groups of 15 larvae were collected in TRIzol reagent (Thermo Fisher Scientific, Waltham, MA, USA), and total RNA was isolated using the miRNeasy mini kit (Qiagen, Hilden, Germany). For similar experiments in Hela cells, cells were seeded in 6 well plates, and after 6 h of chemical treatment, the cells were removed from the wells using TRIzol reagent, and total RNA was isolated using the miRNeasy mini kit according to the manufacturer's instructions. The RNA samples were DNAse-treated utilizing the DNA-free™ DNA Removal Kit (Thermo Fisher Scientific). The cDNA synthesis was performed using the iScript cDNA synthesis kit (Bio-Rad Laboratories, Hercules, CA, USA) using 1 μg of RNA per sample. For the PCR reactions, 10 μM of forward and 10 μM of reverse primer, 12.5 μl of iQ SYBR Green Supermix (Bio-Rad), and 2 μl of cDNA were added to the qPCR reaction mixture. […] The reactions were performed on a MyiQ-single-color real-time PCR detection system (Bio-Rad Laboratories) with initial denaturation for 3 min at 95° C. and 40 cycles of 15 s at 95.5° C., 15 s at 60° C., and 30 s at 72° C. Cycle threshold values (Ct values, i.e. the cycle numbers at which a threshold value of the fluorescence intensity was reached) were determined for each sample. The gene expression level for each sample was normalized using the expression of ppial (peptidylprolyl isomerase Ab (cyclophilin A)) for zebrafish samples, 18S rRNA for human cells. The fold change per sample (compared to the respective control group) was calculated using the ΔΔCt method.

nfkbiaa = experiment: qPCR nfkbiaa expression in zebrafish larvae; type: in vivo, zebrafish (Danio rerio); conditions: for nfkbiaa expression: Example 2, 6 h treatment; for nfkbiaa expression, short-term treatment / nfkbiaa expression, long-term treatment: 5 dpf, beclomethasone 10 μM, Rg1 50 μM or combination; for nfkbiaa expression, short-term treatment: 6 h; for nfkbiaa expression, long-term treatment: 5 days
Description: as §1, §2

zebrafish larvae = experiment: whole-body glucose measurement of zebrafish larvae; conditions: for whole-body glucose level: Example 2, non-wounded; for whole-body glucose level / whole-body glucose level upon wounding: 5 dpf; for whole-body glucose level upon wounding: Example 2, wounded at 2 dpf; for whole body glucose level: 0-5 dpf, 10 μM beclomethasone, 50 μM Rg1 or combination
Description: In each experiment, three biological replicates were used for each treatment group, and the colorimetric assay was performed using technical duplicates.
Tail fin wounding were performed at 2 days post-fertilization (dpf). At 5 dpf, the larvae (15 per sample) were placed in egg water for 1 h and collected in an Eppendorf tube, washed in egg water (3 times for 10 min). Subsequently, 100 μL of ice-cold glucose buffer was added to each sample, and the larvae were homogenized using a BulletBlender® for 3 min at 8,000 rpm. The homogenates were then centrifuged at 4° C. for 8 min at 11,000 rpm and the supernatant was stored at −20° C. Whole-body glucose concentrations were determined using a Glucose Colorimetric Assay kit (Cayman Chemical, Ann Arbor, MI, USA), according to the manufacturer's instructions. In each experiment, three biological replicates were used for each treatment group, and the colorimetric assay was performed using technical duplicates.

[1] = 3 dpf, wounded larvae, 6 h, 10 μM beclomethasone, 50 μM Rg1 or combination

Row | dose-response of whole-body glucose level (zebrafish larvae; beclomethasone 0.1, 1, 5, 10, 15 μM without or with 50 μM Rg1) | SMILES | pck1 expression (pck1; Example 2, 6 h treatment) | nfkbiaa expression (nfkbiaa) | whole-body glucose level (zebrafish larvae) | whole-body glucose level upon wounding (zebrafish larvae) | pck1 expression (pck1; [1]) | pck1 expression, short-term treatment (pck1; 6 h) | pck1 expression, long-term treatment (pck1) | nfkbiaa expression, short-term treatment (nfkbiaa) | nfkbiaa expression, long-term treatment (nfkbiaa) | whole body glucose level (zebrafish larvae)
1 |  | CC(C)=CCC[C@](C)(O[C@@H]1O[C@H](CO)[C@@H](O)[C@H](O)[C@H]1O)[C@H]1CC[C@]2(C)[C@@H]1[C@H](O)C[C@@H]1[C@@]3(C)CC[C@H](O)C(C)(C)[C@@H]3[C@@H](O)C[C@]12C [F1] | did not increase the expression | did not increase the expression | did not show any side effects | did not affect the glucose level |  |  |  |  |  | 
2 |  | CC(C)=CCC[C@](C)(O)[C@H]1CC[C@]2(C)[C@@H]1[C@H](O)C[C@@H]1[C@@]3(C)CC[C@H](O)C(C)(C)[C@@H]3[C@@H](O[C@@H]3O[C@H](CO)[C@@H](O)[C@H](O)[C@H]3O)C[C@]12C [Rh1] | did not increase the expression | did not increase the expression | did not show any side effects | still not show any effect on the glucose or cortisol level or on tissue regeneration |  |  |  |  |  | 
3 |  | CC(C)=CCC[C@](C)(O[C@@H]1O[C@H](CO)[C@@H](O)[C@H](O)[C@H]1O)[C@H]1CC[C@]2(C)[C@@H]1[C@H](O)C[C@@H]1[C@@]3(C)CC[C@H](O)C(C)(C)[C@@H]3[C@@H](O[C@@H]3O[C@H](CO)[C@@H](O)[C@H](O)[C@H]3O)C[C@]12C [Rg1, (3β,6α, 12β)-3,12-Dihydroxydammar-24-ene-6,20-diyl bis-β-D-glucopyranoside] | did not increase the expression | did not increase the expression | did not show any side effects | still not show any effect on the glucose or cortisol level or on tissue regeneration | did not affect the expression of these genes | did not affect the expression of the genes | did not affect the expression of the genes | did not affect the expression of the genes | did not affect the expression of the genes | did not affect the whole-body glucose and cortisol concentrations
4 |  | CC(C)=CCC[C@](C)(O)[C@H]1CC[C@]2(C)[C@@H]1[C@H](O)C[C@@H]1[C@@]3(C)CC[C@H](O)C(C)(C)[C@@H]3[C@@H](O)C[C@]12C [PPT, Protopanaxatriol] | did not increase the expression | did not increase the expression | did not affect the glucose level |  |  |  |  |  |  | 
5 | dose-dependent effect | C[C@H]1C[C@H]2[C@@H]3CCC4=CC(=O)C=C[C@]4(C)[C@@]3(Cl)[C@@H](O)C[C@]2(C)[C@@]1(O)C(=O)CO [beclomethasone, reference compound] |  |  | increase in the glucose level |  | upregulated the expression of pck1 and fkbp5 | upregulated the expression | this upregulation of pck1 and nfkbiaa was significantly reduced after long-term treatment | upregulated the expression | this upregulation of pck1 and nfkbiaa was significantly reduced after long-term treatment | elevated whole body glucose
